From paper PMC6213216, “AbeTx1 Is a Novel Sea Anemone Toxin with a Dual Mechanism of Action on Shaker-Type K^+ Channels Activation” (Marine Drugs, 2018)
Read-outs that look alike come from different tables or passages of the source. Positions of bridges follow the written chain, without caps; N, C: chain ends. Residues, ends and D or L forms follow the SMILES beside them.

Key:
rKV1.6 = molecular target: T1, rKV1.6 (Rattus norvegicus, UniProt P17659); test: Two-electrode voltage-clamp on Xenopus laevis oocytes expressing rKV1.6; assay type: cell-based
T1 construct: expressed in transfected cells; host or cells: Xenopus laevis oocytes injected with cRNA
Experimental: (§1) The pharmacological effect of AbeTx1 was analyzed by heterologous expression of 12 voltage-gated potassium channels isoforms (rKV1.1, Genbank NM173095; rKV1.2, Genbank NM012970; hKV1.3, Genbank L23499; rKV1.4,Genbank NM012971; rKV1.5, Genbank NM012972; rKV1.6, Genbank NM575671; Shaker IR from Drosophila melanogaster, Genbank CG12348; rKV2.1, Genbank NM013186; hKV3.1, Genbank NM004976; rKV4.2, Genbank NM031730; rKV4.3, Genbank NM031739 and hERG, Genbank NM000238), and three voltage-gated sodium channel subtypes (rNaV1.2, Genbank NM012647; rNaV1.4, Genbank M26643 and BgNaV1.1, from Blattella germanica) (r, rat; h, human) in oocytes from Xenopus laevis. The linearized plasmids were transcribed using a T7 or SP6 mMESSAGE-mMACHINE transcription kit (Life Technologies, Austin, TX, USA). Oocytes were injected with 20–50 nL of cRNA at a concentration of 1 ng·nL^−1 using a microinjector (Drummond Scientific, Broomall, PA, USA). The oocytes were stored for 1–3 days at 16 °C until sufficient expression of voltage-gated ion channels was achieved. Oocytes were maintained in an ND96 solution (in mM: 96 NaCl, 2 KCl, 1.8 CaCl2, 2 MgCl2 and 5 HEPES; pH 7.4), supplemented with 50 µg·mL^−1 gentamicin sulfate.
(§2) Two-electrode voltage-clamp recordings were performed at room temperature (18–22 °C) using a Geneclamp 500 amplifier (Molecular Devices, Sunnyvale, CA, USA) controlled by a pClamp data acquisition system (Axon Instruments, Union City, CA, USA). ND96 was used as bath solution. Whole-cell currents from oocytes were recorded 1–3 days after injection. Voltage and current electrodes were filled with KCl (3 M). The resistance of both electrodes was kept between 0.8–1.0 MΩ. The elicited currents were filtered at 0.5 or 2 kHz using a four-pole low-pass Bessel filter. Leak subtraction was performed using a -P/4 protocol. KV1.1-KV1.6 and Shaker IR currents were evoked by 500 ms depolarization to 0 mV, followed by a 500 ms pulse to −50 mV, from a holding potential of −90 mV. KV2.1, KV3.1, KV4.2, and KV4.3 currents were elicited by 500 ms pulses to + 20 mV from a holding potential of −90 mV. Current traces of hERG channels were elicited by applying a +40 mV pulse for 2.5 s, followed by a step to −120 mV for 2.5 s. Sodium current traces were evoked by 100 ms depolarization steps from a holding potential of −90 mV to 0 mV. Concentration-response curves were constructed by adding different AbeTx1 or analogs concentrations directly to the bath solution. The percentage of the KV blockade was plotted against the logarithm of the applied concentrations and fitted with the Hill Equation (1):y = 100/[1 + (IC50/[toxin]) × h](1) where y is the amplitude of the toxin-induced effect, IC50 is the toxin concentration at half-maximal efficacy, [toxin] is the toxin concentration, and h is the Hill coefficient. To investigate the effects on the voltage dependence of activation, current traces were evoked by 10 mV depolarization steps from a holding potential of −90 mV. Data were normalized to the maximal K^+ current amplitude, plotted against prepulse potential, and fitted using the Boltzmann Equation (2):IK/Imax = [1 + (exp(Vg − V)/k] − 1(2) where Imax represents maximal potassium current (IK), Vg is the voltage corresponding to half-maximal current, and k is the slope factor. Each experimental data represents mean ± standard error of at least three oocytes (n ≥ 3) from different frogs. Effect of the toxin on current-voltage experiments was statistically examined by comparing the control condition and the presence of toxin using the Student’s paired t-test. P-values < 0.05 are considered to be statistically significant. Data were analyzed using Clampfit 10.4 (Molecular Devices, Sunnyvale, CA, USA) and Origin v8.1 software (Origin Lab, Northampton, MA, USA), under the institutional license of the University of São Paulo.

rKV1.1 = molecular target: T2, rKV1.1 (Rattus norvegicus, UniProt P10499); test: Two-electrode voltage-clamp on Xenopus laevis oocytes expressing rKV1.1; assay type: cell-based
T2 construct: expressed in transfected cells; host or cells: Xenopus laevis oocytes injected with cRNA
Experimental: as §1, §2

[1] = concentration-response curve, percentage blocked current fitted with Hill equation, TEVC oocytes, 0 mV from −90 mV, mean ± SE, n ≥ 3, SEM, read-out: KV1.6 IC50
[2] = concentration-response curve, percentage blocked current fitted with Hill equation, TEVC oocytes, 0 mV from −90 mV, mean ± SE, n ≥ 3, SEM, read-out: KV1.1 IC50

T1 sequence (P17659 whole entry): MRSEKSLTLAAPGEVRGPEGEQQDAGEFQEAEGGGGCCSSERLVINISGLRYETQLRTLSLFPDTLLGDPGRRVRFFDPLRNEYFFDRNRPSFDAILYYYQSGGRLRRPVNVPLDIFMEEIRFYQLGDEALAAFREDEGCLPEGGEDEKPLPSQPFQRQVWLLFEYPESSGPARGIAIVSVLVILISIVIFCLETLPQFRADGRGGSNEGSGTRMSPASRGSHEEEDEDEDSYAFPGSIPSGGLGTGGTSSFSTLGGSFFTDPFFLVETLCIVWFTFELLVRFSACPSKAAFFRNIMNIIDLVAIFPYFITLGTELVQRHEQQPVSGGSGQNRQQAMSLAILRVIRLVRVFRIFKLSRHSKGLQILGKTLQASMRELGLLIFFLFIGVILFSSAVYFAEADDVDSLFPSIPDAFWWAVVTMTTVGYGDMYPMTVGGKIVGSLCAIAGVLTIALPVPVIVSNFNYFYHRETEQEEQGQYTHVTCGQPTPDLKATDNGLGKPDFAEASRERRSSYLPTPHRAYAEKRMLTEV
T2 sequence (P10499 whole entry): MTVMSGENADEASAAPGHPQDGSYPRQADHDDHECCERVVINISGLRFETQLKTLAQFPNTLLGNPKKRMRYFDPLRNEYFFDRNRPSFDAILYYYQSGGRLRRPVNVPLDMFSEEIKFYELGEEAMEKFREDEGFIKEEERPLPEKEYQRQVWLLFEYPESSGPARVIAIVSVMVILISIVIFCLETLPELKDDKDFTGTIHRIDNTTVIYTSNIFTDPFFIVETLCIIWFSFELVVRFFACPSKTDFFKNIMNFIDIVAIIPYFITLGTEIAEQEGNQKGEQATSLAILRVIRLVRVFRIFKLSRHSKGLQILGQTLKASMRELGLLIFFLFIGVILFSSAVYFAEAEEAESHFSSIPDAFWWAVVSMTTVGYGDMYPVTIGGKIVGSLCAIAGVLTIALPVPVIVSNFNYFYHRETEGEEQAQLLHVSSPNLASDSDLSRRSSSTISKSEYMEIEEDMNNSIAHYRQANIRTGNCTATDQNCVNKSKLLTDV

Row | Compound | IC50 (rKV1.6; [1]) [µM] | IC50 (rKV1.1; [2]) [µM] | KV1.6 K+ currents reduced to (rKV1.6; 920 μM TEA alone in bath solution) [%] | IC50 (rKV1.6; external TEA in bath solution, concentration stated as IC50, read-out: TEA IC50 on KV1.6) [µM] | KV1.1 current reduced to (rKV1.1; 200 μM TEA alone in bath solution) [%] | IC50 (rKV1.1; external TEA in bath solution, concentration stated as IC50, read-out: TEA IC50 on KV1.1) [µM]
1 | C[C@@H]1NC(=O)[C@@H](NC(=O)[C@@H](N)CCCNC(=N)N)CSSC[C@@H](C(=O)NCC(=O)O)NC(=O)[C@H](CC(N)=O)NC(=O)[C@@H]2CCCN2C(=O)[C@H](CCCCN)NC(=O)[C@@H]2CCCN2C(=O)[C@H](CCCNC(=N)N)NC(=O)[C@@H]2CSSC[C@H](NC(=O)[C@H]([C@@H](C)O)NC1=O)C(=O)N[C@@H](CO)C(=O)N[C@@H](CCCCN)C(=O)NCC(=O)N[C@@H](CCCNC(=N)N)C(=O)N2 [Lys3Ala] (H-RCATCSKGRCRPKPNCG-OH; disulfide 2-16, 5-10) | 18.9 | 27.5 |  |  |  | 
2 | C[C@@H]1NC(=O)[C@H](CO)NC(=O)[C@@H]2CSSC[C@H](NC(=O)[C@H](CCCNC(=N)N)NC(=O)CNC1=O)C(=O)N[C@@H](CCCNC(=N)N)C(=O)N1CCC[C@H]1C(=O)N[C@@H](CCCCN)C(=O)N1CCC[C@H]1C(=O)N[C@@H](CC(N)=O)C(=O)N[C@H](C(=O)NCC(=O)O)CSSC[C@H](NC(=O)[C@@H](N)CCCNC(=N)N)C(=O)N[C@@H](CCCCN)C(=O)N[C@@H]([C@@H](C)O)C(=O)N2 [Lys7Ala] (H-RCKTCSAGRCRPKPNCG-OH; disulfide 2-16, 5-10) | 0.852 ± 0.09 | 17.8 |  |  |  | 
3 | C[C@@H]1NC(=O)[C@@H]2CCCN2C(=O)[C@H](CCCNC(=N)N)NC(=O)[C@@H]2CSSC[C@H](NC(=O)[C@H]([C@@H](C)O)NC(=O)[C@H](CCCCN)NC(=O)[C@@H](NC(=O)[C@@H](N)CCCNC(=N)N)CSSC[C@@H](C(=O)NCC(=O)O)NC(=O)[C@H](CC(N)=O)NC(=O)[C@@H]3CCCN3C1=O)C(=O)N[C@@H](CO)C(=O)N[C@@H](CCCCN)C(=O)NCC(=O)N[C@@H](CCCNC(=N)N)C(=O)N2 [Lys13Ala] (H-RCKTCSKGRCRPAPNCG-OH; disulfide 2-16, 5-10) | 1.08 | 4.55 |  |  |  | 
4 | CC[N+](CC)(CC)CC [TEA, tetraethylammonium, reference compound] |  |  | 51.50 ± 0.65 | 920 | 52.20 ± 1.74 | 200
